Results on four compounds are retold here after patent US7557089B2, “Use of derivatives of succinate esters for the treatment of dementia” (priority 2002, dated 2009).

Structures are written as SMILES. Where two headings read alike, the source gives them in different places.

In data set [1] the test system is memory impairment induced by scopolamine. Kind of data set: Step-down passive avoidance test, impairment caused by scopolamine in mice. It counts as in vivo, Male ICR mice. The note with it: for Number of errors: during 5 min; for Number of errors / Latency: scopolamine 1 mg/kg i.p.; for effect on scopolamine-induced impairment of passive avoidance (step-down latency, number of errors): result in words. Here is the method: Male ICR mice, 24-28 g, were used. The mice were housed for 2 days period of habituation before experiment. Mice were randomized into groups (n=20).
The mice were administered by gavage of physiological saline, or drugs at different doses, respectively in the negative control, scopolamine group, and test drugs groups. Twice daily for 2 days.
At D3, 30 min after administration of test drugs, scopolamine (1 mg/kg i.p) was administered, except for the control group.
30 min later, each mouse was individually placed onto the safety platform in the box of step-down apparatus. When the mouse stepped down and touched the grid floor, it was given an electric shock with a tension of 36V, and jumped back onto the rubber platform. Each animal was trained for 5 min and returned to the home cage.
24 hours after the learning trial, the animal was again placed on the platform and the step-down latency and the number of step-down events (number of errors) during 5 min were recorded.

Data set [2] concerns cycloheximide-induced memory deficit. Kind of data set: Step-down passive avoidance test, impairment induced by cycloheximide in mice. The format is in vivo. The note with it: for Improvement (%): step-down latency; for Improvement (%) / Latency / No. of errors: cycloheximide 120 mg/kg i.p.; for Latency / No. of errors: step-down test; for No. of errors: during 5 min. As to the method:
The randomization and the administration of drugs are as before. The mice were administered with cycloheximide (120 mg/kg i.p), except for the control group. 30 min later, each mouse was individually placed onto the platform of the step-down apparatus, and trained for 5 min. The retention test started 24 hours later, the step-down latency and the number of step-down events (number of errors) during 5 min were recorded.

The subject of data set [3] is Aβ(1-42)-induced memory impairment. Kind of data set: Step-down test, Aβ(1-42)-induced impairment (ICV injection) in mice. The format is in vivo. Here is the method:
(§1) Aβ(1-42) (10 μg/mouse) was administered via ICV injection. The sham group was given same volumn of Ringer's solution. One week later, The mice with injection of Aβ(1-42) were randomly divided into 3 groups, and were administered by oral with saline, CE (5 mg/kg) or W6 (1 mg/kg), respectively. Two weeks later, step-down test and water-maze test were performed for evaluating the capacity of learning and memory of mice.

Data set [4] shares this test system. Kind of data set: Water-maze test, Aβ(1-42)-induced impairment of learning and memory in mice. It counts as in vivo. As to the method: as §1
(§2) Water-maze test: Each mouse was first placed on the stairs, then released into the water from position 1 and allowed 120 sec to find the stairs. The mouse received 2 trials per day for 3 days. The starting location varied from position 1 to position 2 and position 3 for the next 2 day. The distance and the dead end increased every day. In D4, the mouse was put into water from position 3, the time to escape from water to the stairs and the number of entering the dead ends (number of errors) were measured. This method is used to evaluate the spatial performance and learning and memory performance of animal.

Data set [5] has as its system learning and memory performance impairment caused by permanent occlusion of carotid arteries. Kind of data set: Step-down test, permanent occlusion of 2 carotid arteries (2-VO) in mice. It counts as in vivo. Here is the method: (§3) At surgery, under pentobarbital anaesthesia (40 mg/kg i.p.), the common carotid arteries of mice were exposed and occluded with thread permanently and the surrounding skin sutured. Sham-operated controls had their carotids exposed but not occluded. After 1 week, the survival mice with occluded carotids were randomly divided into 3 groups. 2 groups were repeated administered with CE (5 mg/kg, po) or W6 (1 mg/kg, po) daily. Four weeks after surgery, mice were trained and tested in a water maze and step-down apparatus.

Data set [6] has the same test system. Kind of data set: Water-maze test, permanent occlusion of 2 carotid arteries (2-VO) in mice. The format is in vivo. The following applies: 2-VO mice, four weeks after surgery, dose 1 mg/kg po daily.
Description: as §2, §3

A further data set has as its system KM mice. Kind of data set: Acute toxicity study in mice. The format is in vivo. The note with it: 0.5 g/kg i.p. or p.o. The source says: KM mice were used for this experiment. 10 male and 10 female mice were included in each group. CE (5 g/kg) or W6-W9 (0.5 g/kg) were given by oral or by i.p. The animals were observed carefully and their body weight were checked every 3 days within 2 weeks.

The target in data set [7] is Acetylcholinesterase (AchE) (Rattus norvegicus, UniProt P37136). The note with it: for inhibition (%): AchE activity, rat forebrain; for AchE activity: rat forebrain homogenate. As to the method: The rats were fasting over night and given a single oral dose of drugs. 1 hour later, the rats were decapitated, the forebrains were rapidly removed under ice bath, weighed and homogenized in 0.9% saline using a ultrasonic homogenizer to obtain 10% brain homogenate. The homogenate was centrifuged (6000 rpm) for 20 mins at low temperature, and retained the supernatant. Then the AchE activity was measured with an assay kit.
Chain of Acetylcholinesterase (AchE) (P37136 32-614): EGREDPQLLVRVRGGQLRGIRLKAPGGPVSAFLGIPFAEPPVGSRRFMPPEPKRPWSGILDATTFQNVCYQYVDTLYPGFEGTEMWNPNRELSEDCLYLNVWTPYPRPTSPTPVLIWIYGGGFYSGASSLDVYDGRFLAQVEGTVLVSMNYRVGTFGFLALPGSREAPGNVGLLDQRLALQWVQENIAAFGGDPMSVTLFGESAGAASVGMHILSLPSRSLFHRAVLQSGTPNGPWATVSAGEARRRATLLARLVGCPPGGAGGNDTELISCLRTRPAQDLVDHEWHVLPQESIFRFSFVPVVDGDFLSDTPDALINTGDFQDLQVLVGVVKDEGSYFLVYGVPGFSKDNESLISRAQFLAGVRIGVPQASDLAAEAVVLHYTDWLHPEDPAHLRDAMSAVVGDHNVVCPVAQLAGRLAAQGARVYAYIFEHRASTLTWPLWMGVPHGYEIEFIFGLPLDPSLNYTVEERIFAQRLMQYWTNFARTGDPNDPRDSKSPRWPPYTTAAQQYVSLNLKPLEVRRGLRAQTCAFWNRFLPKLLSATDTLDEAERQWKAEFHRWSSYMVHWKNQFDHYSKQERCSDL

The mark [8] stands for this setting: step-down test, Aβ(1-42) 10 μg/mouse ICV, mice, dose 1 mg/kg oral, two weeks.
The mark [9] stands for this setting: step-down test, 2-VO mice, four weeks after surgery, dose 1 mg/kg po daily.
Where [10] appears, read: 1 hour after single oral dose 5 mg/kg.
Setting [11] is: 1 hour after single oral dose 20 mg/kg.

Turning to `CC(C)CC(O[C@@H]1O[C@H](CO)[C@@H](O)[C@H](O)[C@H]1O)(C(=O)OCc1ccc(O[C@@H]2O[C@H](CO)[C@@H](O)[C@H](O)[C@H]2O)cc1)C(O)C(=O)OCc1ccc(O[C@@H]2O[C@H](CO)[C@@H](O)[C@H](O)[C@H]2O)cc1` (stereo partly drawn) [Compound W6, 1,4-bis(β-D-glucopyranosyloxybenzyl)-2-β-D-glucopyranosyl-2-isobutyltartrate], the Number of errors was found to be 0.2 ± 0.1 in data set [1] (dose 0.03 mg/kg by gavage); 0.4 ± 0.2 in data set [1] (dose 0.3 mg/kg by gavage); 0.3 ± 0.1 in data set [1] (dose 3 mg/kg by gavage); 0.9 ± 0.2 in data set [3] (setting [8]); 3.1 ± 0.8 in data set [4] (water-maze test (entering dead ends), Aβ(1-42) 10 μg/mouse ICV, mice, dose 1 mg/kg oral, two weeks); 0.2 ± 0.1 in data set [5] (setting [9]). In data set [6], this compound returned a Number of errors of 5.4 ± 1.4. The “effect on scopolamine-induced impairment of passive avoidance (step-down latency, number of errors)” value (from here on “effect … (step-down latency, number of errors)”) in data set [1] is “attenuated the scopolamine-induced impairment of passive avoidance behaviors”. The “Latency” value is listed as 283 ± 38 s in data set [1] (dose 0.03 mg/kg by gavage); 259 ± 34 s in data set [1] (dose 0.3 mg/kg by gavage); 258 ± 17 s in data set [1] (dose 3 mg/kg by gavage); 211 ± 31 s in data set [2] (dose 1.25 mg/kg); 223 ± 24 s in data set [2] (dose 2.5 mg/kg); 182 ± 33 s in data set [2] (dose 5 mg/kg). For the same compound, the “Latency” value in data set [2] (dose 10 mg/kg) was determined as 216 ± 29 s; in data set [3] (setting [8]), 110 ± 37 s; in data set [5] (setting [9]), 253 ± 31 s. The “effect on cycloheximide-induced reduction of latency and number of errors” value in data set [2] (passive avoidance, result in words) was “significantly reversed the cycloheximide-induced reduction of step-down latency”. Further, the “Improvement (%)” value in data set [2] (dose 1.25 mg/kg) worked out at 57%; in data set [2] (dose 2.5 mg/kg) it was 65%; in data set [2] (dose 5 mg/kg), 38%; in data set [2] (dose 10 mg/kg) it was 61%. In addition, the No. of errors in data set [2] (dose 1.25 mg/kg) was 0.6 ± 1.2; in data set [2] (dose 2.5 mg/kg), 0.7 ± 0.9; in data set [2] (dose 5 mg/kg), 0.4 ± 0.5; in data set [2] (dose 10 mg/kg), 0.3 ± 0.5. Moreover, the “effect on Aβ(1-42)-induced impairment in passive avoidance performance” value in data set [3] (mice or rats, treatment for 2 weeks, result in words) was “significantly blocked”. Moreover, the “effect on Aβ(1-42)-induced decrease in spatial working memory” value in data set [4] (treatment for 2 weeks, water maze, result in words) is “significantly improved”. The “Escape Latency” value was 46 ± 11 s in data set [4] (water-maze test, Aβ(1-42) 10 μg/mouse ICV, mice, dose 1 mg/kg oral, two weeks) and 33 ± 19 s in data set [6]. Further, in data set [5] (mice and rats, long term treatment, step-down testing and water-maze testing, result in words), the “effect on deficits of learning and memory caused by cerebral hypoperfusion” value is recorded as “significantly alleviated these changes”. Further, the “acute toxicity (animal death and body weight)” value (shortened to “acute toxicity”) with KM mice is reported as “The result is the same”. Moreover, the “inhibition (%)” value in data set [7] (setting [10]) and in data set [7] (setting [11]) was 0% each time. Also, the AchE activity is 0.80 ± 0.16 in data set [7] (setting [10]) and 0.72 ± 0.16 in data set [7] (setting [11]). For the same compound, the “inhibition on activity of AchE” value in data set [7] (single dose to rats) is on record as “no inhibition”.
Consider `CC(C)CC(O)(C(=O)OCc1ccc(O[C@@H]2O[C@H](CO)[C@@H](O)[C@H](O)[C@H]2O)cc1)C(O)C(=O)OCc1ccc(O[C@@H]2O[C@H](CO)[C@@H](O)[C@H](O)[C@H]2O)cc1` (stereo partly drawn) [Compound W7, 1,4-bis(β-D-glucopyranosyloxybenzyl)-2-isobutyltartrate], for which the Number of errors is recorded as 0.4 ± 0.7 in data set [1] (dose 0.25 mg/kg by gavage) and 0.2 ± 0.4 in data set [1] (dose 1 mg/kg by gavage). Also, in data set [1], the “effect … (step-down latency, number of errors)” value is reported as “attenuated the scopolamine-induced impairment of passive avoidance behaviors”. Further, the “Latency” value in data set [1] (dose 0.25 mg/kg by gavage) stood at 205 ± 142 s; in data set [1] (dose 1 mg/kg by gavage), 237 ± 125 s. Moreover, the “acute toxicity” value in the data set on KM mice is “The result is the same”.
Turning to `CC(C)CC(CC(=O)OCc1ccc(O[C@@H]2O[C@H](CO)[C@@H](O)[C@H](O)[C@H]2O)cc1)(O[C@@H]1O[C@H](CO)[C@@H](O)[C@H](O)[C@H]1O)C(=O)OCc1ccc(O[C@@H]2O[C@H](CO)[C@@H](O)[C@H](O)[C@H]2O)cc1` (stereo partly drawn) [Compound W8, 1,4-bis(β-D-glucopyranosyloxybenzyl)-2-β-D-glucopyranosyl-2-isobutylmalate], in data set [1] (dose 0.25 mg/kg by gavage), the Number of errors amounted to 0.7 ± 0.9 and the “Latency” value worked out at 197 ± 144 s. For the same compound, in data set [1] (dose 1 mg/kg by gavage), the Number of errors is listed as 0.3 ± 0.5 and the “Latency” value turned out to be 218 ± 127 s. For the same compound, the “effect … (step-down latency, number of errors)” value in data set [1] is “attenuated the scopolamine-induced impairment of passive avoidance behaviors”. Moreover, in the data set with KM mice, the “acute toxicity” value is “The result is the same”.
As for `CC(C)CC(O)(CC(=O)OCc1ccc(O[C@@H]2O[C@H](CO)[C@@H](O)[C@H](O)[C@H]2O)cc1)C(=O)OCc1ccc(O[C@@H]2O[C@H](CO)[C@@H](O)[C@H](O)[C@H]2O)cc1` (stereo partly drawn) [Compound W9, 1,4-bis(β-D-glucopyranosyloxybenzyl)-2-hydroxy-2-isobutylmalate], in data set [1] (dose 0.25 mg/kg by gavage), the Number of errors was found to be 0.8 ± 0.7 and the “Latency” value was determined as 140 ± 129 s. In addition, in data set [1] (dose 1 mg/kg by gavage), the Number of errors is reported as 0.4 ± 0.5 and the “Latency” value stood at 210 ± 134 s. For the same compound, the “effect … (step-down latency, number of errors)” value in data set [1] is given as “attenuated the scopolamine-induced impairment of passive avoidance behaviors”. Further, the “acute toxicity” value in the data set with KM mice was “The result is the same”.
